Like-named read-outs stand apart in the source and are kept apart here.
How the values were obtained:
hEPHA1 = biological target: T1, hEPHA1 (Homo sapiens, UniProt P21709); test: KINOMEscan; format: binding
T1 construct: purchased DiscoverX

hRIPK4 = biological target: T2, hRIPK4 (Homo sapiens, UniProt P57078); test: KINOMEscan; format: binding
T2 construct: purchased DiscoverX (KINOMEscan platform)

hFGR = biological target: T3, hFGR (Homo sapiens, UniProt P09769); test: KINOMEscan; format: binding
T3 construct: purchased DiscoverX

hABL1 = biological target: T4, hABL1 (Homo sapiens, UniProt P00519); test: KINOMEscan; format: binding
T4 construct: purchased DiscoverX (KINOMEscan platform)

[1] = test system: ESCC, HCC, and breast cancer cell lines; test: Proliferation assay (CellTiter-Glo); format: cell-based; details: Homo sapiens, range over cell lines of all three panels
Method: Cell viability was measured using CellTiter-Glo^TM (Promega) according to the manufacturer's instructions.

hCSNK1D = biological target: T5, hCSNK1D (Homo sapiens, UniProt P48730); test: KINOMEscan; format: binding
T5 construct: purchased DiscoverX (KINOMEscan platform)

hABL1(pF317I) = biological target: T6, hABL1(pF317I) (Homo sapiens, UniProt P00519, F317I); test: KINOMEscan; format: binding
T6 construct: purchased DiscoverX (KINOMEscan platform)

hRIOK2 = biological target: T7, hRIOK2 (Homo sapiens, UniProt Q9BVS4); test: KINOMEscan; format: binding
T7 construct: purchased DiscoverX (KINOMEscan platform)

hMEK6 = biological target: T8, hMEK6 (Homo sapiens, UniProt P52564); test: KINOMEscan; format: binding
T8 construct: purchased DiscoverX

hH1 = hH1 (Homo sapiens, UniProt P35367); test: β-arrestin Antagonist (Eurofins-CEREP); details: read-out: % Effect, Inhibition
hTAOK3 = biological target: T9, hTAOK3 (Homo sapiens, UniProt Q9H2K8); test: KINOMEscan; format: binding
T9 construct: purchased DiscoverX

hMARK1 = biological target: T10, hMARK1 (Homo sapiens, UniProt Q9P0L2); test: KINOMEscan; format: binding
T10 construct: purchased DiscoverX

hFAK = biological target: T11, hFAK (Homo sapiens, UniProt Q05397); test: KINOMEscan; format: binding
T11 construct: purchased DiscoverX

hTNK1 = biological target: T12, hTNK1 (Homo sapiens, UniProt Q13470); test: KINOMEscan; format: binding
T12 construct: purchased DiscoverX

CYP3A4 = biological target: T13, CYP3A4 (Homo sapiens, UniProt P08684); test: Cytochrome p450 inhibition (Eurofins-CEREP); format: in vitro ADME
T13 construct: Eurofins-CEREP

hPRP4 = biological target: T14, hPRP4 (Homo sapiens, UniProt Q13523); test: KINOMEscan; format: binding
T14 construct: purchased DiscoverX

hIRAK4 = biological target: T15, hIRAK4 (Homo sapiens, UniProt Q9NWZ3); test: KINOMEscan; format: binding
T15 construct: purchased DiscoverX (KINOMEscan panel)

hDYRK1A = biological target: T16, hDYRK1A (Homo sapiens, UniProt Q13627); test: KINOMEscan; format: binding
T16 construct: purchased DiscoverX

hEGFR(E746-A750del) = biological target: T17, hEGFR(E746-A750del) (Homo sapiens, UniProt P00533, DEL746-750); test: KINOMEscan; format: binding
T17 construct: purchased DiscoverX

hERK1 = biological target: T18, hERK1 (Homo sapiens, UniProt P27361); test: KINOMEscan; format: binding
T18 construct: purchased DiscoverX

hYANK3 = biological target: T19, hYANK3 (Homo sapiens, UniProt Q86UX6); test: KINOMEscan; format: binding
T19 construct: purchased DiscoverX

hSYK = biological target: T20, hSYK (Homo sapiens, UniProt P43405); test: KINOMEscan; format: binding
T20 construct: purchased DiscoverX (KINOMEscan platform)

hAURKA = biological target: T21, hAURKA (Homo sapiens, UniProt O14965); test: KINOMEscan; format: binding
T21 construct: purchased DiscoverX

hKIT(L576P) = biological target: T22, hKIT(L576P) (Homo sapiens, UniProt P10721, L576P); test: KINOMEscan; format: binding
T22 construct: purchased DiscoverX (KINOMEscan panel)

hWEE2 = biological target: T23, hWEE2 (Homo sapiens, UniProt P0C1S8); test: KINOMEscan; format: binding
T23 construct: purchased DiscoverX

hKIT(D816V) = biological target: T24, hKIT(D816V) (Homo sapiens, UniProt P10721, D816V); test: KINOMEscan; format: binding
T24 construct: purchased DiscoverX (KINOMEscan panel)

hERK5 = biological target: T25, hERK5 (Homo sapiens, UniProt Q13164); test: KINOMEscan; format: binding
T25 construct: purchased DiscoverX

hMINK = biological target: T26, hMINK (Homo sapiens, UniProt Q8N4C8); test: KINOMEscan; format: binding
T26 construct: purchased DiscoverX

hHUNK = biological target: T27, hHUNK (Homo sapiens, UniProt P57058); test: KINOMEscan; format: binding
T27 construct: purchased DiscoverX (KINOMEscan panel)

hOPRm1 = hOPRm1 (Homo sapiens, UniProt P35372); test: β-arrestin Antagonist (Eurofins-CEREP); details: read-out: % Effect, Inhibition
hFLT3(R834Q) = biological target: T28, hFLT3(R834Q) (Homo sapiens, UniProt P36888, R834Q); test: KINOMEscan; format: binding
T28 construct: purchased DiscoverX

hSGK3 = biological target: T29, hSGK3 (Homo sapiens, UniProt Q96BR1); test: KINOMEscan; format: binding
T29 construct: purchased DiscoverX (KINOMEscan platform)

hBMX = biological target: T30, hBMX (Homo sapiens, UniProt P51813); test: KINOMEscan; format: binding
T30 construct: purchased DiscoverX

hANKK1 = biological target: T31, hANKK1 (Homo sapiens, UniProt Q8NFD2); test: KINOMEscan; format: binding
T31 construct: purchased DiscoverX

hTRKB = biological target: T32, hTRKB (Homo sapiens, UniProt Q16620); test: KINOMEscan; format: binding
T32 construct: purchased DiscoverX

hULK3 = biological target: T33, hULK3 (Homo sapiens, UniProt Q6PHR2); test: KINOMEscan; format: binding
T33 construct: purchased DiscoverX

hBRAF(V600E) = biological target: T34, hBRAF(V600E) (Homo sapiens, UniProt P15056, V600E); test: KINOMEscan; format: binding
T34 construct: purchased DiscoverX

hKIT(D816H) = biological target: T35, hKIT(D816H) (Homo sapiens, UniProt P10721, D816H); test: KINOMEscan; format: binding
T35 construct: purchased DiscoverX (KINOMEscan panel)

hAMPK-alpha2 = biological target: T36, hAMPK-alpha2 (Homo sapiens, UniProt P54646); test: KINOMEscan; format: binding
T36 construct: purchased DiscoverX

T33 sequence (Q6PHR2 whole entry): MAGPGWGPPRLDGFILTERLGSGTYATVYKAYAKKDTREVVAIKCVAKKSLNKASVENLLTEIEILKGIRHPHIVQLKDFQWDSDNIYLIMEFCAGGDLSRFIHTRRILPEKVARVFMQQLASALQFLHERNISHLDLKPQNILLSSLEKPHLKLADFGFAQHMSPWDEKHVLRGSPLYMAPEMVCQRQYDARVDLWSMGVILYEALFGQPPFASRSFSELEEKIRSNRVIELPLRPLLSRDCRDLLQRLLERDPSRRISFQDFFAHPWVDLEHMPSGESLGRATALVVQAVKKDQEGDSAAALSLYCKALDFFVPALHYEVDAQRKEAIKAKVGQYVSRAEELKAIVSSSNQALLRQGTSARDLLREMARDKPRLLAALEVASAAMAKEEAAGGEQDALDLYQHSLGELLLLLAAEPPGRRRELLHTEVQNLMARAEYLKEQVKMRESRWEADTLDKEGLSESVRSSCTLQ
T3 sequence (P09769 whole entry): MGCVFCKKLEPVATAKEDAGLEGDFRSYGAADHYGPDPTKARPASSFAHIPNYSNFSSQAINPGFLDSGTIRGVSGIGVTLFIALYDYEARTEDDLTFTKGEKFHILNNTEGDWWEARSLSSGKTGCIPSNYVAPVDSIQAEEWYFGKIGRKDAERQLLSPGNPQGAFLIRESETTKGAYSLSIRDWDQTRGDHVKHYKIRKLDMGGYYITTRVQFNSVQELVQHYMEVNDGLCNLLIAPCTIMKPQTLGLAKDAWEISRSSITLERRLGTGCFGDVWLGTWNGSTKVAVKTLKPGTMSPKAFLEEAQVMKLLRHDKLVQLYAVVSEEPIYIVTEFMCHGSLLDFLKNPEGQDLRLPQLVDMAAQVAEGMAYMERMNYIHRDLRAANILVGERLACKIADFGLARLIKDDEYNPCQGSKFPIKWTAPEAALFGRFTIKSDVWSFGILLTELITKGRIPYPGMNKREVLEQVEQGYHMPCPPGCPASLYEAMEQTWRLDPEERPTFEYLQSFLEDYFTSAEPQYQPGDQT
T21 sequence (O14965 whole entry): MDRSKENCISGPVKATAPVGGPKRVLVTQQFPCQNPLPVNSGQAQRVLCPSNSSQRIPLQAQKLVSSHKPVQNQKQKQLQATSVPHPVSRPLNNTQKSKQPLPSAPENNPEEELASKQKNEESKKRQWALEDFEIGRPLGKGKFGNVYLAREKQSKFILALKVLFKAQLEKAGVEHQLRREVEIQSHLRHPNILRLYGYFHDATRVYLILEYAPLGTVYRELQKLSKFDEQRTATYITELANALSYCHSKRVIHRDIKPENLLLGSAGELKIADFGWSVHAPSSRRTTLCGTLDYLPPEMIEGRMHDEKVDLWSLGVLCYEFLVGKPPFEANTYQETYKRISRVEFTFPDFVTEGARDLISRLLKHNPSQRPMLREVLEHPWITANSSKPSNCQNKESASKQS
T13 sequence (P08684 whole entry, species assumed): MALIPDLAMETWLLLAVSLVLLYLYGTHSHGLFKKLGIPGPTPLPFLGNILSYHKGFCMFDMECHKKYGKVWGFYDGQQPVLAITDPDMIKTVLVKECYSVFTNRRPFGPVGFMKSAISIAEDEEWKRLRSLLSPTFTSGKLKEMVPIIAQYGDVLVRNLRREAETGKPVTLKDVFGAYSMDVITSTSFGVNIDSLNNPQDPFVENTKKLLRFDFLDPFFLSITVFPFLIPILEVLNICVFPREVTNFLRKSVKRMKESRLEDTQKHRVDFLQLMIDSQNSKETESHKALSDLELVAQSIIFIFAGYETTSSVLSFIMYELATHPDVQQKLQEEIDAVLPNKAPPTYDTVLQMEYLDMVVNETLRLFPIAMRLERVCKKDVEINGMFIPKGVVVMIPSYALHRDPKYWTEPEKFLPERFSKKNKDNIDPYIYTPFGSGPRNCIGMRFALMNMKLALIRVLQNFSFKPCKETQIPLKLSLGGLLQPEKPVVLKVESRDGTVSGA
T31 sequence (Q8NFD2 whole entry): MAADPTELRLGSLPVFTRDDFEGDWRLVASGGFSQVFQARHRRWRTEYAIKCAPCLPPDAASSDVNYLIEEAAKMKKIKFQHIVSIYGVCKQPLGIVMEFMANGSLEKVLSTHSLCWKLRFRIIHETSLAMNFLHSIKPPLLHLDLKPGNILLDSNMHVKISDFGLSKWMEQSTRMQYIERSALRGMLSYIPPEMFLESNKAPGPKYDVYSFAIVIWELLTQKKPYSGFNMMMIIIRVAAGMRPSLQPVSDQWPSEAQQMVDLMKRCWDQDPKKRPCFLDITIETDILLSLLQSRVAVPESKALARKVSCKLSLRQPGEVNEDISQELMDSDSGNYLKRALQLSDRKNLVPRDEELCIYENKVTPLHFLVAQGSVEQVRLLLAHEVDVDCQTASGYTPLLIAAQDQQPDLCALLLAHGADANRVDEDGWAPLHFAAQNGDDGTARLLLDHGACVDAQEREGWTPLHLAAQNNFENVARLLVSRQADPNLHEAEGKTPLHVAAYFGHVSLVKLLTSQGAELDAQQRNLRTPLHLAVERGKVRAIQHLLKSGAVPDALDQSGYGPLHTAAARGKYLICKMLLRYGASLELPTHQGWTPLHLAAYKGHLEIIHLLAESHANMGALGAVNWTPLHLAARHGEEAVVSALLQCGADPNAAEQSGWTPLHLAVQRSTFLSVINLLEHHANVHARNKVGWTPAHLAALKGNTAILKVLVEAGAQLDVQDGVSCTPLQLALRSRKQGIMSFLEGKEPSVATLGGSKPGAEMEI
T34 sequence (P15056 whole entry V600E): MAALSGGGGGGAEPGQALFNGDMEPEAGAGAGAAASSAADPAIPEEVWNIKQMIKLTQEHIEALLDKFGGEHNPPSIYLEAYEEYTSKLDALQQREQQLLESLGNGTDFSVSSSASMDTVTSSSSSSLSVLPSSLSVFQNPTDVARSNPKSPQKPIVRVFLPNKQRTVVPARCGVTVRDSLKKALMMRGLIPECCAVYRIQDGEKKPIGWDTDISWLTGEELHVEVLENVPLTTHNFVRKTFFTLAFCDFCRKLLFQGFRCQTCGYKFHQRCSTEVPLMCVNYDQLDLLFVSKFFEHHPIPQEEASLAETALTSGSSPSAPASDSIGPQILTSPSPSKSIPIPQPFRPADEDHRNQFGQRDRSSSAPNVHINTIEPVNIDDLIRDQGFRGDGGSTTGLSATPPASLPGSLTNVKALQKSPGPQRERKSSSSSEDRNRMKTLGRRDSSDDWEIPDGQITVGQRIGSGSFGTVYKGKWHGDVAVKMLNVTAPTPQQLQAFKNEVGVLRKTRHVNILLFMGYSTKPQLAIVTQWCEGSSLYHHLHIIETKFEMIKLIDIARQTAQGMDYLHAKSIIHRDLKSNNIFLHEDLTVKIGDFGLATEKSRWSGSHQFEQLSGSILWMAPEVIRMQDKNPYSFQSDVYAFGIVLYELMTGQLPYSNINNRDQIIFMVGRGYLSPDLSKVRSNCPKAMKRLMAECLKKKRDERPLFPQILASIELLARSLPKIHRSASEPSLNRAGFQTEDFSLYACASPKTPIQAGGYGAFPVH
T23 sequence (P0C1S8 whole entry): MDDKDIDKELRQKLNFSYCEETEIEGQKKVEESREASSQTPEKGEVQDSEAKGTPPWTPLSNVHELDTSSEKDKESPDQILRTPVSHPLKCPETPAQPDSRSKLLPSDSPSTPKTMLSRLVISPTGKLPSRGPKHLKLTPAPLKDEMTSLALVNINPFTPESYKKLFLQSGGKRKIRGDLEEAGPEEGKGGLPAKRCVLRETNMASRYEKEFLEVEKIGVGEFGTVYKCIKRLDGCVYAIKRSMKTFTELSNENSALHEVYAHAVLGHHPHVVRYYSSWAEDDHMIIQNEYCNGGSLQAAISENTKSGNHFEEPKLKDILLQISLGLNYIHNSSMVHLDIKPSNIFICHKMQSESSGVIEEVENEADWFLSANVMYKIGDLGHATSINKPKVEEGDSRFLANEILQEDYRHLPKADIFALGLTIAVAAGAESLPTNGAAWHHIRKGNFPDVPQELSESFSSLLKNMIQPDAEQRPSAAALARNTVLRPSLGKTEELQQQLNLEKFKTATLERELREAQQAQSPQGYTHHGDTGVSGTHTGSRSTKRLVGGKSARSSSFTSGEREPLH
T14 sequence (Q13523 whole entry): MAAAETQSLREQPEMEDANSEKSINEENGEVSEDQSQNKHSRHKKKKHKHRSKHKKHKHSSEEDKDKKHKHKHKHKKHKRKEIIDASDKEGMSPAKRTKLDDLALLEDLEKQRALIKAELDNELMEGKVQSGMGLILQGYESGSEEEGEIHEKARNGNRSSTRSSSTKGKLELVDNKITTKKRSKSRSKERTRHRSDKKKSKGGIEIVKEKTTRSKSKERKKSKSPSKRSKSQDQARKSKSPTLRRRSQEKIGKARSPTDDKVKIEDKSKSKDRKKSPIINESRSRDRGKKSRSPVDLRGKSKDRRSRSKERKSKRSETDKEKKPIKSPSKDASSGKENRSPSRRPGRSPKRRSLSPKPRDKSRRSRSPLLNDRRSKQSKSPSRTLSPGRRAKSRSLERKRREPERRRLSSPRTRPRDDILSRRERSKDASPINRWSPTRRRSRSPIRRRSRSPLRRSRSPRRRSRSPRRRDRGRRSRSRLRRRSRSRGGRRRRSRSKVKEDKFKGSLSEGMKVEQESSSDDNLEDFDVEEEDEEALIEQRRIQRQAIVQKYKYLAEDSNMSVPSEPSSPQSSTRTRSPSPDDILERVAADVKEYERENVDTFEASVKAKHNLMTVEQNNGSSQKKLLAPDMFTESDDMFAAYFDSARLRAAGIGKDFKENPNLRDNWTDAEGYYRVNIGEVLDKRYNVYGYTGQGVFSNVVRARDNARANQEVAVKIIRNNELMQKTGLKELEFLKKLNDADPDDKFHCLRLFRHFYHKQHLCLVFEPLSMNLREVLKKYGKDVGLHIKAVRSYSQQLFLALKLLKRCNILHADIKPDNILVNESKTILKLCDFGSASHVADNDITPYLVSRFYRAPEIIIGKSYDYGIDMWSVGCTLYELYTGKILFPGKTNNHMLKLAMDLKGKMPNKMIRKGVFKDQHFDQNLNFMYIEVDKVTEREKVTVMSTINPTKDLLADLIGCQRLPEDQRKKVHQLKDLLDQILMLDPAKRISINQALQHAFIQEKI

Cc1cn(CCN2CCN(c3ccccc3-c3cc(C#N)cc(C(=O)NCCCN4CCCC4)c3)CC2)c2ccccc12 [LLY-507, 3-cyano-5-{2-[4-[2-(3-methylindol-1-yl)ethyl]piperazin-1-yl]-phenyl}-N-[(3-pyrrolidin-1-yl)propyl]benzamide]
1.5 to 6 µM: IC50 ([1]; 96 h, 3 to 4-day treatment, read-out: IC50, proliferation, standard assay)
-3.9%: inhibition at 1 µM (hOPRm1)
> 20 µM: IC50 (hEPHA1) | IC50 (hRIPK4) | IC50 (hFGR) | IC50 (hABL1) | IC50 (hCSNK1D) | IC50 (hABL1(pF317I)) | IC50 (hRIOK2) | IC50 (hMEK6) | IC50 (hTAOK3) | IC50 (hMARK1) | IC50 (hFAK) | IC50 (hTNK1) | IC50 (hPRP4) | IC50 (hIRAK4) | IC50 (hDYRK1A) | IC50 (hEGFR(E746-A750del)) | IC50 (hERK1) | IC50 (hYANK3) | IC50 (hSYK) | IC50 (hAURKA) | IC50 (hKIT(L576P)) | IC50 (hWEE2) | IC50 (hKIT(D816V)) | IC50 (hERK5) | IC50 (hMINK) | IC50 (hHUNK) | IC50 (hFLT3(R834Q)) | IC50 (hSGK3) | IC50 (hBMX) | IC50 (hANKK1) | IC50 (hTRKB) | IC50 (hULK3) | IC50 (hBRAF(V600E)) | IC50 (hKIT(D816H)) | IC50 (hAMPK-alpha2)
0.3 to 3.2 µM: IC50 ([1]; 168 h, 7-day treatment, read-out: IC50, proliferation, longer term assay)
69.1%: % inhibition @ 10 μM (CYP3A4)
30.1%: inhibition at 10 µM (hH1)

Source: publication PMC4447944 (The Journal of Biological Chemistry, 2015)
